Reference: article PMC12751061, “Expression and characterization of an endo-β-1,6-galactanase from Arabidopsis thaliana” (Biochemical Journal, 2025)

Biological target: T1, ATIYA1 (Arabidopsis thaliana, UniProt F4HP22)
T1 construct: gene At1g13130; secreted from Komagataella phaffii X-33 (pPICZalpha-A), N-glycosylated, Ni-NTA purified
Assay: HPAEC-PAD hydrolysis time course
Assay type: biochemical
Conditions: 100 µM substrate, 10 nM enzyme, 0.1 M sodium acetate pH 5.0, 30°C

T1 sequence (F4HP22 entry or part of it): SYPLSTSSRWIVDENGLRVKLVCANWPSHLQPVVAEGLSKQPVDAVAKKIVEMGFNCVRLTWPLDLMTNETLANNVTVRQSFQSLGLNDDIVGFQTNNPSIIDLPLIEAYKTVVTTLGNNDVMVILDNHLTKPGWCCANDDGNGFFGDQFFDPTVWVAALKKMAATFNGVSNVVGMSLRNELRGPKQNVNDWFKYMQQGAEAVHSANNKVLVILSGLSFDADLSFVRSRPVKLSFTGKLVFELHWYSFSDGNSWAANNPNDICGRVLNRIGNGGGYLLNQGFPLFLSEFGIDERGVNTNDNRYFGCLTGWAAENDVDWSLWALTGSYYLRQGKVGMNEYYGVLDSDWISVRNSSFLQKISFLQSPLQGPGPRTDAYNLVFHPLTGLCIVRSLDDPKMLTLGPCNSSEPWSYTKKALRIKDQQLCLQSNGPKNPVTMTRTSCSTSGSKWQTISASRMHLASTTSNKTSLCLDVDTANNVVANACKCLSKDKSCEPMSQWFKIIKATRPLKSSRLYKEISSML

SMILES | HPAEC-PAD hydrolysis time course
CO[C@@H]1O[C@H](CO[C@@H]2O[C@H](CO[C@@H]3O[C@H](CO[C@@H]4O[C@H](CO[C@@H]5O[C@H](CO[C@@H]6O[C@H](CO)[C@H](O)[C@H](O)[C@H]6O)[C@H](O)[C@H](O)[C@H]5O)[C@H](O)[C@H](O)[C@H]4O)[C@H](O)[C@H](O)[C@H]3O)[C@H](O)[C@H](O)[C@H]2O)[C@H](O)[C@H](O)[C@H]1O [methyl-β-1,6-galactohexaoside] | preferring higher degrees of polymerization such as methyl-β-1,6-galactopentaoside and methyl-β-1,6-galactohexaoside
CO[C@@H]1O[C@H](CO[C@@H]2O[C@H](CO[C@@H]3O[C@H](CO[C@@H]4O[C@H](CO[C@@H]5O[C@H](CO)[C@H](O)[C@H](O)[C@H]5O)[C@H](O)[C@H](O)[C@H]4O)[C@H](O)[C@H](O)[C@H]3O)[C@H](O)[C@H](O)[C@H]2O)[C@H](O)[C@H](O)[C@H]1O [methyl-β-1,6-galactopentaoside] | preferring higher degrees of polymerization such as methyl-β-1,6-galactopentaoside and methyl-β-1,6-galactohexaoside
